Molecular target: Autotaxin (Homo sapiens, UniProt Q13822)
Experiment: Enzyme Inhibition Assay
Method: Then, 15 μL of 41.7 nM ATX solution was added (30 nM final concentration), mixed five times and then incubated for 15 minutes at 30° C. 10 μL of MR121 substrate solution was added (1 μM final concentration), mixed 30 times and then incubated for 15 minutes at 30° C.

IC50: 7 nM
Compound: NS(=O)(=O)c1ccc(C(=O)N2C[C@H]3CN(C(=O)COc4ccc(OC(F)(F)F)cc4)C[C@]3(F)C2)c(F)c1 (relative stereo) [US10738053, Example 3.01]

Reference: BindingDB's records for patent US10738053 (Hoffmann-La Roche, 2020)
